Reference: ChEMBL document CHEMBL1122105, “Synthesis, decomposition kinetics, and preliminary toxicological studies of pure N-acetyl-p-benzoquinone imine, a proposed toxic metabolite of acetaminophen” (J Med Chem, 1982)

What was measured:
[1] = Toxicity in mice 24 hr after ip administration; assay type: organism-based; conditions: mouse, in vivo
[2] = Rate constant was determined; assay type: functional
[3] = Half life was determined; assay type: ADME; conditions: rat
[4] = Second order rate constant was determined; assay type: functional

Row | Structure (SMILES) | LD50 at 24 h [1] [mg/kg] | Rate constant [2] [M/s] | half-life [3] [min] | Second order [4] [M/s]
1 | CC(=O)Nc1ccc(O)cc1 [ACETAMINOPHEN] | 500 | – | – | –
2 | CC(=O)N=C1C=CC(=O)C=C1 | 20 | 0.00011 | 11 | 0.625
